Data from PubChem BioAssay AID624454 (Sanford-Burnham Center for Chemical Genomics, 2012).
Several values for one entry are separate records, joined by “and”; a condition that tells them apart may be missing. Equal entries are not always repeated. Activity calls are given as the source filed them.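 Rule for the calls: active = EC50 of 10 µM or lower; inactive = the rest.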

Tested on: H9c2 cardiomyocytes, 2-deoxyglucose injury, ATP luminescence, 2 h
Experiment: cardioprotective modulators, 2-DG ATP loss – H9c2 cells, ATP luminescence, set 2, SAR follow-up (AID 624454)

**Q.** For `COc1cccc(N2C(=O)c3ccccc3N3C(=O)c4c(ccc(OC)c4OC)C23)c1` (configuration not stated), which EC50 (protection from 2-deoxyglucose ATP loss, increase) is on record?
**A.** 78 µM (inactive)

**Q.** `COc1ccc(-c2cc(C(=O)Nc3cccc(C(C)=O)c3)c3ccccc3n2)cc1` was tested. Which EC50 (protection from 2-deoxyglucose ATP loss, increase) did it give?
**A.** > 79 µM (inactive)

**Q.** `COc1cccc(N2C(=O)c3ccccc3N3C(=O)c4ccccc4C23)c1` (configuration not stated) was tested. Which EC50 (protection from 2-deoxyglucose ATP loss, increase) did it give?
**A.** > 79 µM (inactive)

**Q.** With `COc1cccc(CNC(=O)c2cc(-c3cc(OC)c(OC)c(OC)c3)nc3ccccc23)c1` as the compound, how does the EC50 (protection from 2-deoxyglucose ATP loss, increase) read?
**A.** 27.4 µM (inactive)

**Q.** With `COc1ccc2c(c1OC)C(=O)N1c3ccccc3C(=O)N(c3cccc(F)c3)C21` (configuration not stated) as the compound, how does the EC50 (protection from 2-deoxyglucose ATP loss, increase) read?
**A.** 41.1 µM (inactive)

**Q.** How did the EC50 (protection from 2-deoxyglucose ATP loss, increase) turn out when `COc1cc(-c2cc(C(=O)Nc3cccc(C(C)=O)c3)c3ccccc3n2)cc(OC)c1OC` was run?
**A.** 13.7 µM (inactive) and 14.8 µM (inactive)

**Q.** Which EC50 (protection from 2-deoxyglucose ATP loss, increase) does the source give for `COc1cc(-c2cc(C(=O)Nc3ccccc3)c3ccccc3n2)cc(OC)c1OC` here?
**A.** > 79 µM (inactive)

**Q.** For `COc1ccc2c(c1OC)C(=O)N1c3ccccc3C(=O)N(c3cccc(Br)c3)C21` (configuration not stated), which EC50 (protection from 2-deoxyglucose ATP loss, increase) is on record?
**A.** 28.4 µM (inactive) and > 79 µM (inactive)

**Q.** Which EC50 (protection from 2-deoxyglucose ATP loss, increase) does the source give for `COc1cc(-c2cc(C(=O)Nc3cccc(Cl)c3)c3ccccc3n2)cc(OC)c1OC` here?
**A.** > 79 µM (inactive)

**Q.** For `CC(=O)c1cccc(NC(=O)c2cc(-c3ccccc3)nc3ccccc23)c1`, which EC50 (protection from 2-deoxyglucose ATP loss, increase) is on record?
**A.** 33.5 µM (inactive)

**Q.** `COc1ccc(N2C(=O)c3ccccc3N3C(=O)c4c(ccc(OC)c4OC)C23)cc1` (configuration not stated) was tested. Which EC50 (protection from 2-deoxyglucose ATP loss, increase) did it give?
**A.** 58.4 µM (inactive)

**Q.** With `COc1cc(-c2cc(C(=O)Nc3cccc(C)c3)c3ccccc3n2)cc(OC)c1OC` as the compound, how does the EC50 (protection from 2-deoxyglucose ATP loss, increase) read?
**A.** > 79 µM (inactive)

**Q.** Which EC50 (protection from 2-deoxyglucose ATP loss, increase) does the source give for `CCN(CC(=O)Nc1ccc(F)cc1)C(=O)c1cc(-c2cccs2)nn1-c1ccccc1` here?
**A.** 36.1 µM (inactive)

**Q.** How did the EC50 (protection from 2-deoxyglucose ATP loss, increase) turn out when `COc1ccc2c(c1OC)C(=O)N1c3ccccc3C(=O)N(Cc3cccc(Cl)c3)C21` (configuration not stated) was run?
**A.** 37.9 µM (inactive)

**Q.** `COc1ccc2c(c1OC)C(=O)N1c3ccccc3C(=O)N(c3ccccc3)C21` (configuration not stated) was tested. Which EC50 (protection from 2-deoxyglucose ATP loss, increase) did it give?
**A.** 31.9 µM (inactive)

**Q.** Which EC50 (protection from 2-deoxyglucose ATP loss, increase) does the source give for `O=C1c2ccccc2N2C(=O)c3ccccc3C2N1c1ccccc1` (configuration not stated) here?
**A.** > 79 µM (inactive)

**Q.** Which EC50 (protection from 2-deoxyglucose ATP loss, increase) does the source give for `COc1cccc(NC(=O)c2cc(-c3cc(OC)c(OC)c(OC)c3)nc3ccccc23)c1` here?
**A.** > 79 µM (inactive)

**Q.** How did the EC50 (protection from 2-deoxyglucose ATP loss, increase) turn out when `COc1cc(-c2cc(C(=O)Nc3cccc(C(F)(F)F)c3)c3ccccc3n2)cc(OC)c1OC` was run?
**A.** > 79 µM (inactive)

**Q.** Which EC50 (protection from 2-deoxyglucose ATP loss, increase) does the source give for `CCN(CC(=O)Nc1ccc(OC)cc1)C(=O)c1cc(-c2cc(OC)c(OC)c(OC)c2)nc2ccccc12` here?
**A.** 29.8 µM (inactive)

**Q.** With `COc1ccc2c(c1OC)C(=O)N1c3ccccc3C(=O)N(c3ccc(Br)cc3)C21` (configuration not stated) as the compound, how does the EC50 (protection from 2-deoxyglucose ATP loss, increase) read?
**A.** 11.3 µM (inactive)

**Q.** With `COc1ccc2c(c1OC)C(=O)N1c3ccccc3C(=O)N(c3cccc(C)c3)C21` (configuration not stated) as the compound, how does the EC50 (protection from 2-deoxyglucose ATP loss, increase) read?
**A.** 53.3 µM (inactive)

**Q.** `COc1ccc(NC(=O)c2cc(-c3cc(OC)c(OC)c(OC)c3)nc3ccccc23)cc1` was tested. Which EC50 (protection from 2-deoxyglucose ATP loss, increase) did it give?
**A.** > 79 µM (inactive)

**Q.** `CCN(CC(=O)Nc1ccc(OC)cc1)C(=O)c1cc(-c2cccs2)nn1-c1ccccc1` was tested. Which EC50 (protection from 2-deoxyglucose ATP loss, increase) did it give?
**A.** 16.1 µM (inactive) and 20.5 µM (inactive)

**Q.** Which EC50 (protection from 2-deoxyglucose ATP loss, increase) does the source give for `COc1cccc(-c2cc(C(=O)Nc3cccc(C(C)=O)c3)c3ccccc3n2)c1` here?
**A.** 37.3 µM (inactive)

**Q.** How did the EC50 (protection from 2-deoxyglucose ATP loss, increase) turn out when `COc1cc(-c2cc(C(=O)Nc3cccc(F)c3)c3ccccc3n2)cc(OC)c1OC` was run?
**A.** > 79 µM (inactive)

**Q.** With `O=C1c2ccccc2N2C(=O)c3ccccc3C2N1c1cccc(Br)c1` (configuration not stated) as the compound, how does the EC50 (protection from 2-deoxyglucose ATP loss, increase) read?
**A.** > 79 µM (inactive)

**Q.** Which EC50 (protection from 2-deoxyglucose ATP loss, increase) does the source give for `COc1cccc(CNC(=O)c2cc(-c3ccc(OC)c(OC)c3)nc3ccccc23)c1` here?
**A.** 18.5 µM (inactive)

**Q.** With `COc1cc(-c2cc(C(=O)Nc3cccc(C(C)=O)c3)c3cc(Cl)ccc3n2)cc(OC)c1OC` as the compound, how does the EC50 (protection from 2-deoxyglucose ATP loss, increase) read?
**A.** > 79 µM (inactive)

**Q.** Which EC50 (protection from 2-deoxyglucose ATP loss, increase) does the source give for `COc1ccc(-c2cc(C(=O)Nc3cccc(C(C)=O)c3)c3ccccc3n2)cc1OC` here?
**A.** 42.8 µM (inactive)

**Q.** With `COc1ccc2c(c1OC)C(=O)N1c3ccccc3C(=O)N(c3ccc(C)cc3)C21` (configuration not stated) as the compound, how does the EC50 (protection from 2-deoxyglucose ATP loss, increase) read?
**A.** 29.1 µM (inactive)

**Q.** With `COc1ccc2c(c1OC)C(=O)N1c3ccccc3C(=O)N(c3cccc(C(F)(F)F)c3)C21` (configuration not stated) as the compound, how does the EC50 (protection from 2-deoxyglucose ATP loss, increase) read?
**A.** > 79 µM (inactive)

**Q.** For `CCOC(=O)c1cccc(NC(=O)c2cc(-c3cc(OC)c(OC)c(OC)c3)nc3ccccc23)c1`, which EC50 (protection from 2-deoxyglucose ATP loss, increase) is on record?
**A.** > 79 µM (inactive)

**Q.** Which EC50 (protection from 2-deoxyglucose ATP loss, increase) does the source give for `COc1cc(-c2cc(C(=O)Nc3ccc(C(C)=O)cc3)c3ccccc3n2)cc(OC)c1OC` here?
**A.** > 79 µM (inactive)

**Q.** `COc1ccc2c(c1OC)C(=O)N1c3ccccc3C(=O)N(Cc3ccccc3Cl)C21` (configuration not stated) was tested. Which EC50 (protection from 2-deoxyglucose ATP loss, increase) did it give?
**A.** 12.8 µM (inactive)

**Q.** Which EC50 (protection from 2-deoxyglucose ATP loss, increase) does the source give for `COc1ccc2c(c1OC)C(=O)N1c3ccccc3C(=O)N(c3cccc(Cl)c3)C21` (configuration not stated) here?
**A.** 45 µM (inactive)

**Q.** With `COc1ccc2c(c1OC)C(=O)N1c3ccccc3C(=O)N(c3ccc(C(C)(C)C)cc3)C21` (configuration not stated) as the compound, how does the EC50 (protection from 2-deoxyglucose ATP loss, increase) read?
**A.** > 79 µM (inactive)

**Q.** With `CCN(CC(=O)Nc1ccccc1)C(=O)c1cc(-c2cccs2)nn1-c1ccccc1` as the compound, how does the EC50 (protection from 2-deoxyglucose ATP loss, increase) read?
**A.** > 79 µM (inactive)
